Results reported in patent publication US20110040086A1, “Novel Beta-Lactam Antibiotics, Methods for Their Production, and Their Use” (DRITTE PATENTPORTFOLIO BETEILIGUNGSGESELLSCHAFT MB, priority 2007, published 2011).

Assays:
[1] = tested on: Staphylococcus aureus 315; assay: agar diffusion test (Test System II, multi-resistant germs); format: cell-based; design: key: r = resistant (no detectable zone of inhibition)
How it was run: (§1)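 Disc diffusion on Müller-Hinton II agar; inoculum McFarland 0.5 in saline, streaked in three directions. Discs carry 10/50/100 μg compound (MeOH or water). 37 °C, 18-20 h; read-out: zone-of-inhibition diameter.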

[2] = tested on: Enterococcus faecalis 769; assay: as above; format: cell-based; design: key: r = resistant (no detectable zone of inhibition)
How it was run: as §1

[3] = tested on: S. epidermidis 125; assay: as above; format: cell-based, Staphylococcus epidermidis
How it was run: as §1

[4] = tested on: S. aureus 526; assay: as above; format: cell-based, Staphylococcus aureus; design: key: r = resistant (no detectable zone of inhibition)
How it was run: as §1

[5] = tested on: S. aureus 39105; assay: as above; format: cell-based, Staphylococcus aureus; design: key: r = resistant (no detectable zone of inhibition)
How it was run: as §1

[6] = tested on: S. aureus 33490; assay: as above; format: cell-based, Staphylococcus aureus; design: key: r = resistant (no detectable zone of inhibition)
How it was run: as §1

[7] = tested on: S. aureus 520; assay: as above; format: cell-based, Staphylococcus aureus; design: key: r = resistant (no detectable zone of inhibition)
How it was run: as §1

[8] = tested on: S. aureus 34289; assay: as above; format: cell-based, Staphylococcus aureus; design: key: r = resistant (no detectable zone of inhibition)
How it was run: as §1

[9] = tested on: S. aureus 36881; assay: as above; format: cell-based, Staphylococcus aureus; design: key: r = resistant (no detectable zone of inhibition)
How it was run: as §1

[10] = tested on: S. aureus North Germany strain; assay: as above; format: cell-based, Staphylococcus aureus; design: key: r = resistant (no detectable zone of inhibition)
How it was run: as §1

[11] = tested on: Staphylococcus aureus ATCC 6538; assay: mouse infected with Staphylococcus aureus infection model (survival); format: in vivo, BALB/c mice; details: 2 × 0.5 mg (25 mg/kg) i.p.
How it was run: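 BALB/c mice, at least 3 per group, made neutropenic with cyclophosphamide i.p. (250 mg/kg day 0, 100 mg/kg day 2). Infected i.p. on day 3 with 10 μl/g of S. aureus suspension at OD550 0.6 (ca. 10^10-10^12 CFU). Antibiotic given i.p. in PBS with 3% DMSO 30 min post-infection, then repeated; survival recorded.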

[12] = tested on: S. aureus 38418; assay: agar diffusion test (Test System II, multi-resistant germs); format: cell-based, Staphylococcus aureus
How it was run: as §1

[13] = tested on: S. aureus ATCC 6538; assay: as above; format: cell-based, Staphylococcus aureus
How it was run: as §1

[14] = tested on: E. faecalis 945; assay: as above; format: cell-based, Enterococcus faecalis; design: key: r = resistant (no detectable zone of inhibition)
How it was run: as §1

[15] = tested on: S. epidermidis 847; assay: as above; format: cell-based, Staphylococcus epidermidis
How it was run: as §1

[16] = tested on: S. epidermidis 1071; assay: as above; format: cell-based, Staphylococcus epidermidis
How it was run: as §1

[17] = tested on: S. epidermidis 563; assay: as above; format: cell-based, Staphylococcus epidermidis
How it was run: as §1

[18] = tested on: S. epidermidis 1068; assay: as above; format: cell-based, Staphylococcus epidermidis
How it was run: as §1

O=C(O)C1=C(Cl)CSC2C(NC(=O)C(NC3=C(C(=O)NCCO)C(=O)C=CC3=O)c3ccccc3)C(=O)N12 (stereo not shown) [1i, 3-chlorine-7-{2-[2-(2-hydroxyethylcarbamoyl)-3,6-dioxocyclohexa-1,4-dienylamino]-2-phenyl-acetylamino}-8-oxo-1-thia-5-azabicyclo[4.2.0]oct-3-en-4-carboxylic acid]
22 mm: Diameter of zone of inhibition ([5]; Quantity n 0.29) | Diameter of zone of inhibition ([6]; Quantity n [μmol] 0.14) | Diameter of zone of inhibition ([16]; Quantity n 0.14) | Diameter of zone of inhibition ([17]; Quantity n 0.14) | Diameter of zone of inhibition ([18]; Quantity n 0.29)
12/12: Survival/tested mice n/n [11]
14 mm: Diameter of zone of inhibition ([1]; Quantity n 0.29) | Diameter of zone of inhibition ([6]; Quantity n [μmol] 0.029) | Diameter of zone of inhibition ([16]; Quantity n 0.029)
10 mm: Diameter of zone of inhibition ([1]; Quantity n 0.14)
20 mm: Diameter of zone of inhibition ([3]; Quantity n 0.029) | Diameter of zone of inhibition ([12]; Quantity n [mol] 0.029) | Diameter of zone of inhibition ([15]; Quantity n [mol] 0.14)
32 mm: Diameter of zone of inhibition ([3]; Quantity n 0.29)
r: Diameter of zone of inhibition ([1]; Quantity n 0.029) | Diameter of zone of inhibition ([2]; Quantity n 0.029) | Diameter of zone of inhibition ([2]; Quantity n 0.14) | Diameter of zone of inhibition ([2]; Quantity n 0.29) | Diameter of zone of inhibition ([4]; Quantity n 0.029) | Diameter of zone of inhibition ([4]; Quantity n 0.14) | Diameter of zone of inhibition ([4]; Quantity n 0.29) | Diameter of zone of inhibition ([5]; Quantity n 0.029) | Diameter of zone of inhibition ([7]; Quantity n [mol] 0.029) | Diameter of zone of inhibition ([7]; Quantity n [mol] 0.14) | Diameter of zone of inhibition ([7]; Quantity n [mol] 0.29) | Diameter of zone of inhibition ([8]; Quantity n [mol] 0.029) | Diameter of zone of inhibition ([8]; Quantity n [mol] 0.14) | Diameter of zone of inhibition ([8]; Quantity n [mol] 0.29) | Diameter of zone of inhibition ([9]; Quantity n 0.029) | Diameter of zone of inhibition ([10]; Quantity n 0.029) | Diameter of zone of inhibition ([14]; Quantity n 0.029) | Diameter of zone of inhibition ([14]; Quantity n 0.14) | Diameter of zone of inhibition ([14]; Quantity n 0.29)
12 mm: Diameter of zone of inhibition ([9]; Quantity n 0.14) | Diameter of zone of inhibition ([10]; Quantity n 0.14) | Diameter of zone of inhibition ([15]; Quantity n [mol] 0.029) | Diameter of zone of inhibition ([17]; Quantity n 0.029) | Diameter of zone of inhibition ([18]; Quantity n 0.029)
24 mm: Diameter of zone of inhibition ([15]; Quantity n [mol] 0.29) | Diameter of zone of inhibition ([17]; Quantity n 0.29)
36 mm: Diameter of zone of inhibition ([13]; Quantity n 0.29)
16 mm: Diameter of zone of inhibition ([10]; Quantity n 0.29)
26 mm: Diameter of zone of inhibition ([6]; Quantity n [μmol] 0.29) | Diameter of zone of inhibition ([13]; Quantity n 0.029) | Diameter of zone of inhibition ([16]; Quantity n 0.29)
30 mm: Diameter of zone of inhibition ([12]; Quantity n [mol] 0.14)
28 mm: Diameter of zone of inhibition ([3]; Quantity n 0.14)
18 mm: Diameter of zone of inhibition ([5]; Quantity n 0.14) | Diameter of zone of inhibition ([9]; Quantity n 0.29) | Diameter of zone of inhibition ([18]; Quantity n 0.14)
34 mm: Diameter of zone of inhibition ([12]; Quantity n [mol] 0.29) | Diameter of zone of inhibition ([13]; Quantity n 0.14)
